# Results: patent publication US6313376A, “Maize aquaporins and uses thereof” (Pioneer Hi-Bred International, Inc., priority 1999, dated 2001)
# T1: ZmPIP3 (Zea mays, UniProt Q9XF58)
# T1 construct: plasma membrane swelling assay; insert borders and tag not described
# T1 sequence (Q9XF58 1-284): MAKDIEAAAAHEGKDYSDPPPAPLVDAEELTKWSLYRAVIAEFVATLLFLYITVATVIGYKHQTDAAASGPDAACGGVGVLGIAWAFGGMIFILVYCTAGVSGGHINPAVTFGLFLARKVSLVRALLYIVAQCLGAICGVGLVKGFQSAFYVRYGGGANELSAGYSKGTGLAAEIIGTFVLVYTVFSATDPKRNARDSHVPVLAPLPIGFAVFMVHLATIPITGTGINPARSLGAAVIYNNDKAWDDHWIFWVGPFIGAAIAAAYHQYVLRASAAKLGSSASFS
# B1: AtRD28: plasma membrane AtRD28 aquaporin (Daniels et al., 1994), positive control in oocytes (protein, UniProt P30302 1-285, looked up)
# Aquaporin PIP2-3: MAKDVEGPDGFQTRDYEDPPPTPFFDAEELTKWSLYRAVIAEFVATLLFLYVTVLTVIGYKIQSDTKAGGVDCGGVGILGIAWAFGGMIFILVYCTAGISGGHINPAVTFGLFLARKVSLIRAVLYMVAQCLGAICGVGFVKAFQSSHYVNYGGGANFLADGYNTGTGLAAEIIGTFVLVYTVFSATDPKRNARDSHVPVLAPLPIGFAVFMVHLATIPITGTGINPARSFGAAVIFNKSKPWDDHWIFWVGPFIGATIAAFYHQFVLRASGSKSLGSFRSAANV
# B2: ZmPIP3: maize aquaporin; polypeptide of SEQ ID NO: 4, expressed from cRNA in Xenopus oocytes (protein)
# chain: T1 sequence (Q9XF58 1-284)
# B3: ZmPIP2: maize aquaporin designation; polypeptide of SEQ ID NO: 2, expressed from cRNA in Xenopus oocytes (protein)
# chain: MEGKEEDVRLGANKFSERQPIGTAAQGAADDKDYKEPPPAPLFEPGELKSWSFYRAGIAEFVATFLFLYITILTVMGVSKSTSKCATVGIQGIAWSFGGMIFALVYCTAGISGGHINPAVTFGLFLARKLSLTRALFYIIMQCLGAICGAGVVKGFQQGLYMGNGGGANVVAPGYTKGDGLGAEIVGTFILVYTVFSATDAKRNARDSHVPILAPLPIGFAVFLVHLATIPITGTGINPARSLGAAIIYNRDHAWNDHWIFWVGPFIGAALAAIYHQVIIRAIPFKSR
# How the values were obtained:
# ZmPIP2 = test: Osmotic water permeability assay, water channel activity of ZmPIP2 in the presence of cAMP agonists or phosphatase inhibitor; format: cell-based, Zea mays; conditions: cAMP agonists to activate cellular PKA, or protein phosphatase inhibitor
# Protocol: (§1) Xenopus laevis oocytes were prepared and injected as previously described (Daniels et al., 1996). The osmotic water permeability assay was conducted as previously described (Weig et al., 1997).
# A number of studies indicate that the activity of aquaporins may be regulated by phosphorylation. For instance, -TIP, a seed specific vacuolar protein from bean, is phosphorylated in vivo and in vitro and the phosphorylation regulates its water channel activity in Xenopus oocytes (Maurel et al., 1993). […] Water channel activity of ZmPIP2 was tested in the presence of (1) cAMP agonists (8-bromoadenosine 3', 5'-cyclic monophosphate, forksolin and 3-isobutyl-1-methylxanthine) to increase the cytosolic cAMP concentration and activate cellular PKA and (2) protein phosphatase inhibitor okadeic acid.
# ZmPIP3 = target: T1, ZmPIP3; test: Osmotic water permeability assay (Xenopus oocyte swelling), inhibition of water transport through ZmPIP3; format: cell-based
# Protocol: as §1
# (§2) The biological activity of aquaporins is usually determined with Xenopus oocyte swelling assays (Maurel et al, 1993). MIP cRNA is injected into oocytes and after a 3-day incubation the oocytes are moved to a hypotonic medium. If water channel proteins are present in the plasma membrane, the oocytes swell and burst much faster than the control oocytes. […] The osmotic water permeability coefficient (Pf) of the oocyte membrane increased 8-fold over the control. Mercurial compounds are characteristic inhibitors of many water-channel proteins. Water transport through ZmPIP3 is inhibited 50% by 1 mM mercuric chloride and this inhibition is reversed by the reducing agent -mercaptoethanol.
# Xenopus laevis oocytes [1] = test: Osmotic water permeability assay of cRNA-injected oocytes (Pf of the oocyte membrane); format: cell-based; conditions: cRNA-injected oocytes moved to hypotonic medium after 3-day incubation; versus control oocytes
# Protocol: as §1, §2
# Xenopus laevis oocytes [2] = test: Radiolabeled solute uptake assay in ZmPIP2-expressing oocytes; format: cell-based; conditions: 1 mM solute, 21° C., 0, 15 and 30 min
# Protocol: Two to three days after water or mRNA injection, groups of 5 oocytes were incubated at 21° C. in […] of Barth's solution containing 0.1 to 0.5 MBq/ml of the radiolabeled solutes ([^14 C]glycerol, […]; [^14 C]choline, 2.0 GBq/mmol; [^14 C]ethanol, 0.144 GBq/mmol; [^14 C]urea, 2.0 GBq/mmol or [^14 C]labeled amino acid mixture without methionine, 1.85 MBq/ml). Nonradioactive solutes were added to give a 1 mM final concentration. After 0, 15 and 30 min, the oocytes were washed rapidly three times in ice-cold Barth's solution, and individual oocytes were dissolved in 5% SDS for scintillation counting.
# Although many MIP proteins are aquaporin, some of them can transport small neutral solutes, exclusively or in addition to water. For instance, tobacco NtTIPa and NtAQP1 transport glycerol in addition to water (Gerbeau et al., 1999), whilst the bacterial GIpF is a selective glycerol facilitator. Transport essays were performed in ZmPIP2-expressing oocytes with a series of labeled solutes including glycerol, urea, ethanol, choline and amino acids.
molecule,measurement,setting,value
"Nc1ncnc2c1nc(Br)n2[C@@H]1O[C@@H]2COP(=O)(O)O[C@H]2[C@H]1O [8-bromoadenosine 3', 5'-cyclic monophosphate]",effect on Pf of ZmPIP2-expressing oocytes,ZmPIP2,None of these treatments affected the Pf
CC(C)Cn1c(=O)n(C)c(=O)c2[nH]cnc21 [3-isobutyl-1-methylxanthine],effect on Pf of ZmPIP2-expressing oocytes,ZmPIP2,None of these treatments affected the Pf
okadeic acid,effect on Pf of ZmPIP2-expressing oocytes,ZmPIP2,None of these treatments affected the Pf
[Cl][Hg][Cl] [mercuric chloride],inhibition of water transport through ZmPIP3,"ZmPIP3; 1 mM mercuric chloride, ZmPIP3 cRNA-injected Xenopus oocytes",50%
OCCS [-mercaptoethanol],reversal of mercuric chloride inhibition of ZmPIP3 water transport,ZmPIP3; reducing agent added after 1 mM mercuric chloride inhibition,reversed
C=C[C@@]1(C)CC(=O)[C@]2(O)[C@@]3(C)[C@@H](O)CCC(C)(C)[C@@H]3[C@H](O)[C@H](OC(C)=O)[C@@]2(C)O1 [forksolin],effect on Pf of ZmPIP2-expressing oocytes,ZmPIP2,None of these treatments affected the Pf
B1,increase of osmotic water permeability coefficient (Pf) of the oocyte membrane over the control,Xenopus laevis oocytes [1],8 fold
B2,increase of osmotic water permeability coefficient (Pf) of the oocyte membrane over the control,Xenopus laevis oocytes [1],8 fold
B3,"transport of labeled solutes (glycerol, urea, ethanol, choline, amino acids) versus water-injected oocytes",Xenopus laevis oocytes [2],None of the solutes tested were preferentially transported
